Assay results: ChEMBL document CHEMBL1201862, “PubChem BioAssay data set” (2004)
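In this assay, cells in 96-well plates receive the compound at five concentrations for 48 hours. Endpoints are linearly interpolated between the surrounding concentrations. The concentration for 50% growth inhibition is given as GI50.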 Activity calls are given as the source filed them. Rule as the data show it: active = GI50 up to about 1.1 µM and inactive = higher.

Tests used:
Assay in all cases: NCI anticancer screen, dose series, 48 h
[1] = system: A498
[2] = system: BT-549
[3] = system: CCRF-CEM
[4] = system: HOP-62
[5] = system: IGROV-1
[6] = system: MDA-MB-231
[7] = system: MDA-MB-435
[8] = system: MOLT-4
[9] = system: NCI-H522
[10] = system: OVCAR-5
[11] = system: SF-295
[12] = system: SF-539
[13] = system: SK-MEL-2
[14] = system: SN12C
[15] = system: T47D
[16] = system: ACHN
[17] = system: HCT-15
[18] = system: KM12
[19] = system: UO-31
[20] = system: HOP-92

SMILES	GI50 [1]	GI50 [2]	GI50 [3]	GI50 [4]	GI50 [5]	GI50 [6]	GI50 [7]	GI50 [8]	GI50 [9]	GI50 [10]	GI50 [11]	GI50 [12]	GI50 [13]	GI50 [14]	GI50 [15]	GI50 [16]	GI50 [17] [µM]	GI50 [18]	GI50 [19]	GI50 [20]
Cc1n[nH]c(=O)n1N1C(=O)CCCC1=O	> 100 µM (inactive)	> 100 µM (inactive)	> 100 µM (inactive)	> 100 µM (inactive)	> 100 µM (inactive)	> 100 µM (inactive)	> 100 µM (inactive)	22.6 µM (inactive)	> 100 µM (inactive)	> 100 µM (inactive)	> 100 µM (inactive)	> 100 µM (inactive)	> 100 µM (inactive)	> 100 µM (inactive)	> 100 µM (inactive)	–	–	–	–	–
COc1ccc2c(c1)C(=O)C1CCC(=O)N1C2c1ccc2c(c1)OCO2 (centres undefined)	17 µM (inactive)	4.26 µM (inactive)	3.09 µM (inactive)	18.6 µM (inactive)	16.5 µM (inactive)	12.2 µM (inactive)	6.21 µM (inactive)	2.74 µM (inactive)	5.04 µM (inactive)	14.9 µM (inactive)	15.9 µM (inactive)	23 µM (inactive)	13 µM (inactive)	12.1 µM (inactive)	14.2 µM (inactive)	12.1 µM (inactive)	12.2	8.87 µM (inactive)	10.6 µM (inactive)	–
CC1(C)S[C@@H]2[C@H](NC(=O)[C@H](N)c3ccccc3)C(=O)N2[C@H]1C(=O)O [AMPICILLIN]	–	> 100 µM (inactive)	> 100 µM (inactive)	> 100 µM (inactive)	> 100 µM (inactive)	> 100 µM (inactive)	> 100 µM (inactive)	> 100 µM (inactive)	40.1 µM (inactive)	> 100 µM (inactive)	> 100 µM (inactive)	> 100 µM (inactive)	> 100 µM (inactive)	> 100 µM (inactive)	> 100 µM (inactive)	> 100 µM (inactive)	> 100	> 100 µM (inactive)	> 100 µM (inactive)	> 100 µM (inactive)
CCOC(=O)c1cc(C2CCN(CC(C)CC)C2=S)c(-c2cc(C)no2)[nH]1 (centres undefined)	> 100 µM (inactive)	83.9 µM (inactive)	> 100 µM (inactive)	> 100 µM (inactive)	> 100 µM (inactive)	29.6 µM (inactive)	> 100 µM (inactive)	44.1 µM (inactive)	–	> 100 µM (inactive)	> 100 µM (inactive)	> 100 µM (inactive)	> 100 µM (inactive)	> 100 µM (inactive)	50.4 µM (inactive)	–	> 100	49.2 µM (inactive)	17.3 µM (inactive)	38 µM (inactive)
CN(C(=O)Cc1ccccc1)n1cnn(CC(=O)OC(C)(C)C)c1=S	> 10 µM (inactive)	> 10 µM (inactive)	> 10 µM (inactive)	> 10 µM (inactive)	> 10 µM (inactive)	> 10 µM (inactive)	> 10 µM (inactive)	> 10 µM (inactive)	> 10 µM (inactive)	> 10 µM (inactive)	> 10 µM (inactive)	> 10 µM (inactive)	–	> 10 µM (inactive)	> 10 µM (inactive)	> 10 µM (inactive)	> 10	> 10 µM (inactive)	> 10 µM (inactive)	> 10 µM (inactive)
Cn1c(-c2cccs2)cc(-c2ccsc2)c1-c1ccsc1	> 100 µM (inactive)	> 100 µM (inactive)	> 100 µM (inactive)	> 100 µM (inactive)	> 100 µM (inactive)	> 100 µM (inactive)	> 100 µM (inactive)	> 100 µM (inactive)	> 100 µM (inactive)	> 100 µM (inactive)	> 100 µM (inactive)	> 100 µM (inactive)	–	> 100 µM (inactive)	1.81 µM (inactive)	> 100 µM (inactive)	> 100	> 100 µM (inactive)	> 100 µM (inactive)	> 100 µM (inactive)
O=c1n(/N=C/c2ccccc2)c(=O)n2n1C1C=CC2CC1	> 100 µM (inactive)	> 100 µM (inactive)	> 100 µM (inactive)	> 100 µM (inactive)	> 100 µM (inactive)	> 100 µM (inactive)	> 100 µM (inactive)	> 100 µM (inactive)	–	> 100 µM (inactive)	> 100 µM (inactive)	> 100 µM (inactive)	> 100 µM (inactive)	> 100 µM (inactive)	> 100 µM (inactive)	> 100 µM (inactive)	> 100	> 100 µM (inactive)	> 100 µM (inactive)	> 100 µM (inactive)
COC(=O)/C=C\[C@@H]1[C@H](C)N1S(=O)(=O)c1ccc(C)cc1 (some centres undefined)	> 100 µM (inactive)	> 100 µM (inactive)	> 100 µM (inactive)	> 100 µM (inactive)	> 100 µM (inactive)	> 100 µM (inactive)	> 100 µM (inactive)	> 100 µM (inactive)	> 100 µM (inactive)	> 100 µM (inactive)	> 100 µM (inactive)	> 100 µM (inactive)	> 100 µM (inactive)	> 100 µM (inactive)	> 100 µM (inactive)	> 100 µM (inactive)	> 100	–	–	–
CC12CC(C/C1=N/O)C(C)(C)C2 (centres undefined)	> 100 µM (inactive)	> 100 µM (inactive)	> 100 µM (inactive)	> 100 µM (inactive)	> 100 µM (inactive)	> 100 µM (inactive)	> 100 µM (inactive)	–	> 100 µM (inactive)	> 100 µM (inactive)	> 100 µM (inactive)	> 100 µM (inactive)	–	> 100 µM (inactive)	> 100 µM (inactive)	> 100 µM (inactive)	–	> 100 µM (inactive)	> 100 µM (inactive)	> 100 µM (inactive)
O=C(c1ccccc1)C1C(C(=O)c2ccccc2)C(c2ccccc2)N(c2ccccc2)C1c1ccccc1 (centres undefined)	–	> 100 µM (inactive)	> 100 µM (inactive)	> 100 µM (inactive)	> 100 µM (inactive)	> 100 µM (inactive)	> 100 µM (inactive)	> 100 µM (inactive)	> 100 µM (inactive)	> 100 µM (inactive)	> 100 µM (inactive)	> 100 µM (inactive)	> 100 µM (inactive)	> 100 µM (inactive)	> 100 µM (inactive)	> 100 µM (inactive)	> 100	–	> 100 µM (inactive)	> 100 µM (inactive)
CC(NC(=O)C(N)CC(=O)O)NC(=O)N(C)C(C)(C)C (centres undefined)	–	> 100 µM (inactive)	> 100 µM (inactive)	> 100 µM (inactive)	> 100 µM (inactive)	> 100 µM (inactive)	> 100 µM (inactive)	> 100 µM (inactive)	> 100 µM (inactive)	> 100 µM (inactive)	> 100 µM (inactive)	> 100 µM (inactive)	> 100 µM (inactive)	> 100 µM (inactive)	> 100 µM (inactive)	> 100 µM (inactive)	> 100	> 100 µM (inactive)	> 100 µM (inactive)	–
COc1ccc2c(c1O)C13CCN(C)C(C2)C1CCC1(C3)OCCO1 (centres undefined)	–	> 100 µM (inactive)	–	> 100 µM (inactive)	> 100 µM (inactive)	> 100 µM (inactive)	> 100 µM (inactive)	> 100 µM (inactive)	> 100 µM (inactive)	> 100 µM (inactive)	> 100 µM (inactive)	–	> 100 µM (inactive)	> 100 µM (inactive)	> 100 µM (inactive)	> 100 µM (inactive)	> 100	> 100 µM (inactive)	> 100 µM (inactive)	> 100 µM (inactive)
Nc1nc(Nc2ccc(Cl)cc2)sc1C(=O)c1c[nH]c2ccccc12	7.94 µM (inactive)	16.9 µM (inactive)	15 µM (inactive)	21 µM (inactive)	17.3 µM (inactive)	17.9 µM (inactive)	12.9 µM (inactive)	–	–	21.1 µM (inactive)	–	15.8 µM (inactive)	14.6 µM (inactive)	15.5 µM (inactive)	8.32 µM (inactive)	12.4 µM (inactive)	3.87	14 µM (inactive)	15.4 µM (inactive)	20 µM (inactive)
COc1cc(C2SC(=N)Nc3c2c(C)nn3C(=O)c2ccccc2O)cc(OC)c1OC (centres undefined)	5 µM (inactive)	> 10 µM (inactive)	3.85 µM (inactive)	6.15 µM (inactive)	2.04 µM (inactive)	7.89 µM (inactive)	6.78 µM (inactive)	4 µM (inactive)	–	> 10 µM (inactive)	3.51 µM (inactive)	4.42 µM (inactive)	> 10 µM (inactive)	9.18 µM (inactive)	3.26 µM (inactive)	4.32 µM (inactive)	4.31	8.3 µM (inactive)	6.18 µM (inactive)	3.12 µM (inactive)
N=C(Cc1ccccc1)NCC(=O)O	> 100 µM (inactive)	> 100 µM (inactive)	> 100 µM (inactive)	> 100 µM (inactive)	> 100 µM (inactive)	> 100 µM (inactive)	> 100 µM (inactive)	> 100 µM (inactive)	> 100 µM (inactive)	> 100 µM (inactive)	> 100 µM (inactive)	–	> 100 µM (inactive)	> 100 µM (inactive)	> 100 µM (inactive)	> 100 µM (inactive)	> 100	> 100 µM (inactive)	> 100 µM (inactive)	> 100 µM (inactive)
Cn1cco/c1=N/c1ccc(Cl)c(Cl)c1	> 10 µM (inactive)	> 10 µM (inactive)	> 10 µM (inactive)	> 10 µM (inactive)	> 10 µM (inactive)	> 10 µM (inactive)	> 10 µM (inactive)	> 10 µM (inactive)	> 10 µM (inactive)	> 10 µM (inactive)	> 10 µM (inactive)	> 10 µM (inactive)	–	> 10 µM (inactive)	> 10 µM (inactive)	> 10 µM (inactive)	> 10	> 10 µM (inactive)	> 10 µM (inactive)	> 10 µM (inactive)
